According to patent US8822523B2, “Carboxamide microbiocides” (Syngenta Participations AG, priority 2011, dated 2014):

Legend:
[1] = test system: Mycosphaerella arachidis (Cercospora arachidicola); assay: Mycosphaerella arachidis (Cercospora arachidicola) / liquid culture (early leaf spot); format: cell-based; settings: 200 ppm active ingredient, PDB potato dextrose broth, 24° C., photometrically after 6-7 days, read-out: fungal growth inhibition
Description: Mycosphaerella arachidis (Cercospora arachidicola)/Liquid Culture (Early Leaf Spot)
(§1) Conidia of the fungus from cryogenic storage were directly mixed into nutrient broth (PDB potato dextrose broth). After placing a (DMSO) solution of the test compounds (200 ppm active ingredient) into a microtiter plate (96-well format) the nutrient broth containing the fungal spores was added. The test plates were incubated at 24° C. and the inhibition of growth was measured photometrically after 6-7 days. The activity of a compound was expressed as fungal growth inhibition (0=no growth inhibition, ratings of 80% to 99% mean good to very good inhibition, 100%=complete inhibition).

Puccinia recondita [2] = assay: Puccinia recondita / wheat / leaf disc curative (brown rust); format: in vivo; settings: foliar, 24 h, 200 ppm active ingredient applied one day after inoculation, wheat leaf segments, assessed 8 dpi, read-out: fungal growth inhibition
Description: Puccinia recondita/Wheat/Leaf Disc Curative (Brown Rust)
(§2) Wheat leaf segments were placed on agar in multiwell plates (24-well format). The leaf disks were then inoculated with a spore suspension of the fungus One day after inoculation the test solution was applied (200 ppm active ingredient). After appropriate incubation the activity of a compound was assessed 8 dpi (days after inoculation) as curative fungicidal activity. The activity of a compound was expressed as fungal growth inhibition (0=no growth inhibition, ratings of 80% to 99% mean good to very good inhibition, 100%=complete inhibition).

[3] = test system: Mycosphaerella graminicola (Septoria tritici); assay: Mycosphaerella graminicola (Septoria tritici) / liquid culture (Septoria blotch); format: cell-based; settings: Zymoseptoria tritici, 96 h; 200 ppm active ingredient, PDB potato dextrose broth, 24° C., photometrically after 4 days; read-out: fungal growth inhibition
Description: Mycosphaerella graminicola (Septoria tritici)/Liquid Culture (Septoria blotch)
as §1, with “4” for “6-7”

Puccinia recondita [4] = assay: Puccinia recondita / wheat / leaf disc preventative (brown rust); format: in vivo; settings: foliar, 200 ppm active ingredient, wheat leaf segments, preventive, assessed 8 dpi, read-out: fungal growth inhibition
Description: Puccinia recondita/Wheat/Leaf Disc Preventative (Brown Rust)
as §2, with “format) and sprayed with test solutions (200 ppm active ingredient). After drying, the” for “format). The”, “were” for “were then”, “fungus.” for “fungus One day after inoculation the test solution was applied (200 ppm active ingredient).”, “preventive” for “curative”

Measured: inhibition at 200 ppm

Cn1cc(C(=O)NOCC2CCCCc3cc(C#CC(C)(C)C)sc32)c(C(F)F)n1 (stereo not shown) [Compound 2.47, 3-Difluoromethyl-1-methyl-1H-pyrazole-4-carboxylic acid [2-(3,3-dimethylbut-1-ynyl)-5,6,7,8-tetrahydro-4H-cyclohepta[b]thiophen-8-yl]methoxy amide]
≥ 80%: all assays above
